Values belong to the molecule of their own block, whether it stands above or below them.
Assays:
[1] = Relative light stability of dosage forms; format: physicochemical; design: key: S = satisfactory (pale green-yellow solid)
Source text: (§1) Dosage forms of trimetrexate glucuronate and trimetrexate ascorbate were dispersed in thin films on watch glasses and exposed to illumination in an air atmosphere over time. The overall illumination was approximately 0.28 million lux hours per day and the integrated near ultraviolet energy was approximately 210 watt hours per square meter per day. Therefore at day 9 the dosage forms had received approximately 2.5 million lux hours of illumination and approximately 1900 watt hours per square meter of integrated near ultraviolet energy. The dosage forms were tested over time for trimetrexate decomposition and observed for physical appearance. Both dosage forms were tested according to the method in Example 2, except the amount of ascorbic acid equivalent to that in the dosage form was added to the trimetrexate HPLC standards being used to evaluate the ascorbate formulation to give equivalent response factors.
(§2) In Table 9, the total quantity of trimetrexate free base is expressed as percent of the initial amount of trimetrexate, and the total amount of impurities is expressed as the sum of the weight percent of the aldehyde degradant and area percent of all other impurities. The oxidative degradation pathway of trimetrexate generates the aldehyde degradant. Its response factor has been determined to be 0.62 relative to that of trimetrexate. Therefore the weight percent of the aldehyde degradant is obtained by dividing the area percent value by the response factor of 0.62.

[2] = Relative light stability of dosage forms; format: physicochemical; design: key: S = satisfactory (pale green-yellow solid); U = unsatisfactory (discolored solid)
Source text: as §1, §2

[3] = Relative thermal stability of solid dosage forms; format: physicochemical; design: key to Appearance: S = satisfactory (pale green-yellow solid); settings: 40° C.
Experimental: Both dosage forms were tested according to the method in Example 2, except the amount of ascorbic acid equivalent to that in the dosage form was added to the trimetrexate HPLC standards being used to evaluate the ascorbate formulation to give equivalent response factors.

[4] = Relative light stability of dosage forms; format: physicochemical
Source text: as §1, §2

[5] = Relative thermal stability of reconstituted dosage forms; format: physicochemical; design: key to Appearance: S = satisfactory (pale green-yellow solution); U = unsatisfactory (discolored solution); settings: 25 ° C.
Experimental: One bulk solution of each dosage form was prepared by combining its vials, held at 25 ° C. and 60% relative humidity in closed containers and tested over time for trimetrexate decomposition and observed for physical appearance. Both dosage forms were tested according to the method in Example 2, except the amount of ascorbic acid equivalent to that in the dosage form was added to the trimetrexate standards being used to evaluate the ascorbate formulation to give equivalent response factors.

[6] = test system: human tumor cells lines derived from breast, colon, lung, ovary, renal and melanoma cells; settings: cited from earlier work
[7] = test system: murine tumors such as B16 melanoma, colon 26 and 38, L1210 and P388 leukemia and CD8F mammary tumors; settings: cited from earlier work
[8] = exposed to oxygen at room temperature; cited from earlier work
[9] = test system: murine cell lines such as L1210, L5178Y, S-180, W-256; settings: cited from earlier work
P450 enzyme system = settings: cited from earlier work
[10] = cited from earlier work
[11] = in 1:1 methanol/water; cited from earlier work
[12] = day 0, thin film, illumination ~0.28 million lux hours per day, air
[13] = day 9 of illumination (~2.5 million lux hours)
[14] = day 0 of illumination, weight percent aldehyde + area percent other impurities
[15] = day 0, reconstituted ~12.5 mg/ml, 60% RH
[16] = day 0, reconstituted ~12.5 mg/ml, 60% RH, HPLC area
[17] = day 0, reconstituted ~12.5 mg/ml, 60% relative humidity

- Appearance [1, 12]: S
- Appearance ([2]; day 2 of illumination): U
- Appearance ([2]; day 4 of illumination): U
- Appearance ([2]; day 6 of illumination): U
- Appearance [2, 13]: U
- % Label Claim ([3]; 1 month, 75% RH): 99.6%
- % Total Imp. ([3]; 1 month, 75% RH, HPLC area): 0.1%
- Appearance ([3]; 1 month, 75% relative humidity): S
- % Label Claim ([3]; 2 months, 75% RH): 100.7%
- % Total Imp. ([3]; 2 months, 75% RH): 0.2%
- Appearance ([3]; 2 months, 75% RH): S
- % Label Claim ([3]; 3 months, 75% RH): 98.0%
- % Total Imp. ([3]; 3 months, 75% RH): 0.3%
- Appearance ([3]; 3 months, 75% RH): S
- % Aldehyde Degredant (w/w) ([4]; day 0 of illumination): 0.3%
- % TMX of Initial ([4]; day 0 of illumination): 100.0%
- % Total Imp. [4, 14]: 0.9%
- % Aldehyde Degredant (w/w) ([4]; day 2 of illumination): 2.0%
- % TMX of Initial ([4]; day 2 of illumination): 94.4%
- % Total Imp. ([4]; day 2 of illumination): 3.1%
- % Aldehyde Degredant (w/w) ([4]; day 4 of illumination): 3.8%
- % TMX of Initial ([4]; day 4 of illumination): 92.4%
- % Total Imp. ([4]; day 4 of illumination): 5.6%
- % Aldehyde Degredant (w/w) ([4]; day 6 of illumination): 5.6%
- % TMX of Initial ([4]; day 6 of illumination): 87.9%
- % Total Imp. ([4]; day 6 of illumination): 8.1%
- % Aldehyde Degredant (w/w) ([4]; day 9 of illumination): 8.2%
- % TMX of Initial ([4]; day 9 of illumination): 83.6%
- % Total Imp. ([4]; day 9 of illumination): 11.8%
- % Label Claim [5, 15]: 95.9%
- % Total Imp. [5, 16]: 0.2%
- Appearance [5, 17]: S
- % Label Claim ([5]; day 1, reconstituted, 60% RH): 98.6%
- % Total Imp. ([5]; day 1, reconstituted, 60% RH): 0.2%
- Appearance ([5]; day 1, reconstituted, 60% RH): S
- % Label Claim ([5]; day 2, reconstituted, 60% RH): 96.8%
- % Total Imp. ([5]; day 2, reconstituted, 60% RH): 0.4%
- Appearance ([5]; day 2, reconstituted, 60% RH): S
- % Label Claim ([5]; day 3, reconstituted, 60% RH): 97.1%
- % Total Imp. ([5]; day 3, reconstituted, 60% RH): 0.5%
- Appearance ([5]; day 3, reconstituted, 60% RH): U
- % Label Claim ([5]; day 4, reconstituted, 60% RH): 96.1%
- % Total Imp. ([5]; day 4, reconstituted, 60% RH): 0.8%
- Appearance ([5]; day 4, reconstituted, 60% RH): U
- % Label Claim ([5]; day 5, reconstituted, 60% RH): 96.5%
- % Total Imp. ([5]; day 5, reconstituted, 60% RH): 1.1%
- Appearance ([5]; day 5, reconstituted, 60% RH): U
- % Label Claim ([5]; day 6, reconstituted, 60% RH): 95.0%
- % Total Imp. ([5]; day 6, reconstituted, 60% RH): 1.5%
- Appearance ([5]; day 6, reconstituted, 60% RH): U
- % Label Claim ([5]; day 7, reconstituted, 60% RH): 92.1%
- % Total Imp. ([5]; day 7, reconstituted, 60% RH): 1.9%
- Appearance ([5]; day 7, reconstituted, 60% RH): U
SMILES: COc1cc(NCc2ccc3nc(N)nc(N)c3c2C)cc(OC)c1OC.O=C(O)[C@H]1O[C@H](O)[C@H](O)[C@@H](O)[C@@H]1O [Trimetrexate Glucuronate]

- Appearance [1, 12]: S
- Appearance ([1]; day 2 of illumination): S
- Appearance ([1]; day 4 of illumination): S
- Appearance ([1]; day 6 of illumination): S
- Appearance [1, 13]: S
- % Label Claim ([3]; 1 month, 75% RH): 100.0%
- % Total Imp. ([3]; 1 month, 75% RH, HPLC area): <0.1%
- Appearance ([3]; 1 month, 75% relative humidity): S
- % Label Claim ([3]; 2 months, 75% RH): 99.6%
- % Total Imp. ([3]; 2 months, 75% RH): <0.1%
- Appearance ([3]; 2 months, 75% RH): S
- % Label Claim ([3]; 3 months, 75% RH): 98.9%
- % Total Imp. ([3]; 3 months, 75% RH): <0.1%
- Appearance ([3]; 3 months, 75% RH): S
- % Aldehyde Degredant (w/w) ([4]; day 0 of illumination): 0.1%
- % TMX of Initial ([4]; day 0 of illumination): 100.0%
- % Total Imp. [4, 14]: 0.1%
- % Aldehyde Degredant (w/w) ([4]; day 2 of illumination): 0.1%
- % TMX of Initial ([4]; day 2 of illumination): 98.3%
- % Total Imp. ([4]; day 2 of illumination): 0.4%
- % Aldehyde Degredant (w/w) ([4]; day 4 of illumination): 0.1%
- % TMX of Initial ([4]; day 4 of illumination): 97.7%
- % Total Imp. ([4]; day 4 of illumination): 0.6%
- % Aldehyde Degredant (w/w) ([4]; day 6 of illumination): 0.1%
- % TMX of Initial ([4]; day 6 of illumination): 97.1%
- % Total Imp. ([4]; day 6 of illumination): 1.0%
- % Aldehyde Degredant (w/w) ([4]; day 9 of illumination): 0.2%
- % TMX of Initial ([4]; day 9 of illumination): 96.1%
- % Total Imp. ([4]; day 9 of illumination): 1.4%
- % Label Claim [5, 15]: 99.0%
- % Total Imp. [5, 16]: 0.1%
- Appearance [5, 17]: S
- % Label Claim ([5]; day 1, reconstituted, 60% RH): 98.5%
- % Total Imp. ([5]; day 1, reconstituted, 60% RH): 0.1%
- Appearance ([5]; day 1, reconstituted, 60% RH): S
- % Label Claim ([5]; day 2, reconstituted, 60% RH): 98.4%
- % Total Imp. ([5]; day 2, reconstituted, 60% RH): 0.1%
- Appearance ([5]; day 2, reconstituted, 60% RH): S
- % Label Claim ([5]; day 3, reconstituted, 60% RH): 98.8%
- % Total Imp. ([5]; day 3, reconstituted, 60% RH): 0.2%
- Appearance ([5]; day 3, reconstituted, 60% RH): S
- % Label Claim ([5]; day 4, reconstituted, 60% RH): 101.0%
- % Total Imp. ([5]; day 4, reconstituted, 60% RH): 0.4%
- Appearance ([5]; day 4, reconstituted, 60% RH): S
- % Label Claim ([5]; day 5, reconstituted, 60% RH): 98.2%
- % Total Imp. ([5]; day 5, reconstituted, 60% RH): 0.3%
- Appearance ([5]; day 5, reconstituted, 60% RH): S
- % Label Claim ([5]; day 6, reconstituted, 60% RH): 96.5%
- % Total Imp. ([5]; day 6, reconstituted, 60% RH): 0.4%
- Appearance ([5]; day 6, reconstituted, 60% RH): S
- % Label Claim ([5]; day 7, reconstituted, 60% RH): 98.7%
- % Total Imp. ([5]; day 7, reconstituted, 60% RH): 0.6%
- Appearance ([5]; day 7, reconstituted, 60% RH): S
SMILES: COc1cc(NCc2ccc3nc(N)nc(N)c3c2C)cc(OC)c1OC.O=C1O[C@H]([C@@H](O)CO)C(O)=C1O [Trimetrexate Ascorbate]

SMILES: COc1cc(NCc2ccc3nc(N)nc(N)c3c2C)cc(OC)c1OC [trimetrexate free base, 2,4-diamino-5-methyl-6-[(3,4,5-trimethoxyanilino)methyl]quinazoline]
- in vitro activity against human tumor cell lines [6]: in vitro activity
- in vivo utility against murine tumors [7]: in vivo utility
- decomposition [8]: decomposes over time
- in vitro antitumor activity [9]: in vitro antitumor activity
- metabolism (P450 enzyme system): metabolized by a P450 enzyme system
- water solubility [10]: < 100 µg/mL
- pKa [11]: 8.0

From patent publication US6576635B2, “Compositions comprising trimetrexate” (MedImmune Oncology, Inc., priority 1999, dated 2003)
